# From patent US20190358242A1, “COMPOSITIONS, KITS, AND METHODS TO INDUCE ACQUIRED CYTORESISTANCE USING STRESS PROTEIN INDUCERS” (FRED HUTCHINSON CANCER RESEARCH CENTER, priority 2017, published 2019)
# Several values for one entry are separate records, joined by “and”; a condition that tells them apart may be missing. Equal values may be shown once.
# How the values were obtained:
# HO-1 mRNA [1] = assay: SnPP vs. SnMeP: renal cortical HO-1 mRNA induction (RT-PCR); assay type: in vivo, mice; settings: 1 umole, 4 hrs post injection, n 3
# Source text: FIG. 28. Comparison of SnPP vs. SnMeP effects on renal cortical HO-1 and haptoglobin mRNA induction 4 hrs post agent injection. Mice received either 1 umole tin protoporphyrin (SnPP), tin mesoporphyrin (SnMeP), or vehicle (n, 3 each) and 4 hrs renal cortical RNA was extracted and subjected to RT-PCR.
# haptoglobin protein = assay: Cardiac haptoglobin protein (ELISA); assay type: in vivo, CD-1 mice
# Protocol: (§1) Thirty-two mice were divided into 4 equal groups: (1) control mice; (2) mice treated with 1 mg of N-Mgb injection (as a bolus through the tail vein); (3) mice treated with […] of SnPP (via tail vein); and (4) mice treated with combined N-Mgb 1 SnPP. After either 4 hours (n=16) or 18 hours (n=16), the mice were deeply anesthetized with pentobarbital (50 mg/kg), the abdomen was opened through a midline abdominal incision, and the kidneys were removed. To determine potential effects on extrarenal organs, a liver lobe and the heart were also removed. The tissues were iced and then extracted for protein and RNA (RNeasy Plus Mini; Qiagen, Valencia, Calif.) and subjected to enzyme linked immunosorbent assay (ELISA) and reverse transcriptase polymerase chain reaction (RT-PCR) for HO-1, haptoglobin, and IL-10 protein and messenger RNAs (mRNAs). Zager et al. J Am Soc Nephrol 2014; 25:998-1012; Zager et al. Am J Physiol 2012; 303:F139-48. As an assessment of renal function, control mice and the 18 hour after N-Mgb+SnPP-treated mice had blood urea nitrogen (BUN) and plasma creatinine levels measured. Additionally, transverse 10% formalin fixed kidney sections ([…]) were cut and stained with hematoxylin and eosin (H&E) and periodic acid Schiff (PAS) to further assess potential injury.
# HO-1 mRNA [2] = assay: Liver HO-1 mRNA (RT-PCR); assay type: in vivo, CD-1 mice
# Protocol: as §1
# IL-10 protein = assay: Liver IL-10 protein (ELISA); assay type: in vivo, CD-1 mice
# Protocol: as §1
# haptoglobin mRNA [3] = assay: Liver haptoglobin mRNA (RT-PCR); assay type: in vivo, CD-1 mice
# Protocol: as §1
# IL-10 mRNA [4] = assay: Liver IL-10 mRNA (RT-PCR); assay type: in vivo, CD-1 mice
# Protocol: as §1
# [5] = parameters: species or system mice; settings: mouse, in vivo, iv
# haptoglobin mRNA [6] = assay: Kidney haptoglobin mRNA (RT-PCR); assay type: in vivo, CD-1 mice
# Protocol: as §1
# HO-1 mRNA [7] = assay: Renal HO-1 mRNA (RT-PCR, HO-1/GAPDH) after IV myoglobin, SnPP or both; assay type: in vivo, CD-1 mice; settings: kidney, 4 hr post IV injection
# Source text: (§2) The Glycerol Model of AKI. This is a widely used model of rhabdomyolysis-induced AKI that has been employed worldwide for 50 years. The model was used to test whether prophylactic interventions confer protection against AKI. Basically, the protocol is as follows: Male CD-1 mice (35-45 grams), obtained from Charles River Laboratories, Wilmington, Mass. were studied. Mice were maintained under standard vivarium conditions and generally housed for 1-3 weeks prior to study. The mice were placed in a cylindrical restraining cage, and then were given a tail vein injection of the test substances (see below) or test substance vehicle. The mice were then returned to their cages. Eighteen hours (hrs) later, the mice were briefly anesthetized by isoflurane inhalation, and given an intramuscular injection of hypertonic (50%) glycerol in a dose of 9 ml/Kg body weight. The dose is divided in two, with half injected into the muscle of each of the hind limbs. The mice were then returned to their cages. Eighteen hrs later, the mice were deeply anesthetized with pentobarbital (50-100 mg/Kg), the abdominal cavity was opened through a midline abdominal incision, a blood sample was obtained from the abdominal vena cava and the kidneys were resected. A kidney cross section was obtained and fixed in formalin for subsequent histologic analysis. The terminal blood samples were analyzed for BUN and creatinine, using commercially available assay kits. The remaining kidney tissue was subjected to cortical dissection, and the cortical tissues were then extracted for protein and RNA. The protein samples were saved for analysis of HO-1 levels, and the RNA samples were subjected to RT-PCR to quantify HO-1 mRNA as well as levels of other stress gene mRNAs (e.g. NGAL, haptoglobin, hemopexin, hepicidin).
# (§3) Myoglobin+SnPP: To 5 mg of dry myoglobin was added 0.9 ml of PBS+0.1 ml of a stock SnPP solution (50 umole/ml). The resulting final concentrations were 5 mg/ml myoglobin+5 umoles/ml of SnPP. The tail vein was injected with 200 ul of this solution, which equals 1 mg myoglobin+1 umole SnPP. […]
# […] To confirm that the myoglobin+SnPP has a synergistic effect in inducing HO-1 mRNA and HO-1 protein levels, each of the above combinations have been administered alone via tail vein injection. […] For additional information regarding methods, see Zager et al., Am J Physiol Renal Physiol. 2014 Jul. 30. Pii.
# HO-1 protein [8] = assay: Renal cortex HO-1 protein (ELISA) after IV myoglobin, SnPP or both; assay type: in vivo, CD-1 mice; settings: 4 hr IV; 1 mg myoglobin, 1 μmole SnPP
# Source text: as §2, §3
# Four hr post myoglobin vs myoglobin+SnPP vs SnPP alone experiments. To confirm that the myoglobin+SnPP has a synergistic effect in inducing HO-1 mRNA and HO-1 protein levels, each of the above combinations have been administered alone via tail vein injection. Four hrs later, the mice were sacrificed as noted above and the kidneys were harvested for assessment of HO-1 mRNA and protein levels. For additional information regarding methods, see Zager et al., Am J Physiol Renal Physiol. 2014 Jul. 30. Pii.
# Given that it is just 4 hrs post injection, the mRNA increases are greater than the protein increases as protein synthesis must follow the mRNA induction-requiring more time.
# IL-10 mRNA [9] = assay: Kidney IL-10 mRNA (RT-PCR); assay type: in vivo, CD-1 mice
# Protocol: as §1
# HO-1 protein [10] = assay: Kidney HO-1 protein (ELISA); assay type: in vivo, CD-1 mice
# Protocol: as §1
# HO-1 mRNA [11] = assay: Kidney HO-1 mRNA (RT-PCR); assay type: in vivo, CD-1 mice
# Protocol: as §1
# [12] = 4 h after IV injection, N-Mgb 1 mg, SnPP 1 mmol [sic]
smiles,measurement,setting,value
"C=Cc1c2[n-]c(c1C)/C=c1\[n-]/c(c(C)c1C=C)=C\c1[n-]c(c(CCC(=O)O)c1C)/C=c1\[n-]c(c(C)c1CCC(=O)O)=C2.[Sn+4] [SnPP, tin protoporphyrin]",Renal cortical HO-1 mRNA induction,HO-1 mRNA [1],raised
same,Cardiac protein Haptoglobin,haptoglobin protein; 4 h after IV injection,19.1 ± 2.1
same,Cardiac protein Haptoglobin,haptoglobin protein; 18 h after IV injection,96.1 ± 36.2
same,Liver mRNA HO-1,HO-1 mRNA [2]; 4 h after IV injection,3.15 ± 0.25
same,Liver mRNA HO-1,HO-1 mRNA [2]; 18 h after IV injection,2.56 ± 0.21
same,Liver protein IL-10,IL-10 protein; 4 h after IV injection,485 ± 47
same,Liver protein IL-10,IL-10 protein; 18 h after IV injection,8198 ± 725
same,Liver mRNA Haptoglobin,haptoglobin mRNA [3]; 4 h after IV injection,0.32 ± 0.02
same,Liver mRNA Haptoglobin,haptoglobin mRNA [3]; 18 h after IV injection,0.65 ± 0.17
same,Liver mRNA IL-10,IL-10 mRNA [4]; 4 h after IV injection,0.14 ± 0.1
same,Liver mRNA IL-10,IL-10 mRNA [4]; 18 h after IV injection,0.05 ± 0.01
same,"Plasma LDH, Average",[5],4.51 Absorbance U LDH/ml
same,Kidney mRNA Haptoglobin,haptoglobin mRNA [6]; [12],0.19 ± 0.01
same,Kidney mRNA cortex Haptoglobin,haptoglobin mRNA [6]; 18 h after IV injection,0.23 ± 0.08
same,"HO-1/GAPDH mRNA, Average",HO-1 mRNA [7],6.94
same,"HO-1/GAPDH mRNA, individual mice",HO-1 mRNA [7],9.72 and 8.25 and 6.95 and 2.85
same,"Cortex HO-1 protein (ELISA), Average",HO-1 protein [8],34.4 ng HO-1/mg protein
same,"Cortex HO-1 protein (ELISA), individual mice",HO-1 protein [8],31.5 ng HO-1/mg protein and 20.5 ng HO-1/mg protein and 53.6 ng HO-1/mg protein and 32.2 ng HO-1/mg protein
same,"Impact on renal IL-10 mRNA levels, in words","IL-10 mRNA [9]; 4-hour time point, agent alone",either minimal or no impact
same,Kidney mRNA IL-10,IL-10 mRNA [9]; [12],0.39 ± 0.15
same,Kidney mRNA cortex IL-10,IL-10 mRNA [9]; 18 h after IV injection,0.18 ± 0.09
same,"Renal HO-1 protein increase, in words","HO-1 protein [10]; 18-hour time point, agent alone",only relatively small HO-1 protein increases
same,Kidney HO-1 protein,HO-1 protein [10]; [12],22.9 ± 2.6
same,Kidney protein HO-1,HO-1 protein [10]; 18 h after IV injection,18 ± 2
same,Kidney mRNA HO-1,HO-1 mRNA [11]; [12],4.38 ± 0.28
same,"Renal HO-1 mRNA increase, in words","HO-1 mRNA [11]; 4 hour, agent alone",only modest increases
same,Kidney mRNA cortex HO-1,HO-1 mRNA [11]; 18 h after IV injection,0.63 ± 0.06
